The record followed here is article PMC9232612, “A phase 1b randomised controlled trial of a glucagon-like peptide-1 and glucagon receptor dual agonist IBI362 (LY3305677) in Chinese patients with type 2 diabetes” (Nature Communications, 2022).

“And” between values parts separate entries of the source, which are not always exact repeats. Identical values can stand only once.

Holding throughout (format): in vivo, human
Test [1] concerns Chinese patients with T2D. Kind of test: Mixed-meal tolerance test (MTT): C peptide. The note with it: 1.5 mg once weekly, n=6. Here is the method:
(§1) HbA1c (2200101, Bio-Rad, USA), blood glucose (05168791190, Roche Diagnostics, Germany), insulin (12017547122, Roche Diagnostics, Germany), C peptide (03184897190, Roche Diagnostics, Germany), total GLP-1 (GLP-1 [7–36] amide and its metabolite, GLP-1 [9–36] amide, 10-1278-01, Mercodia AB, Sweden) and OXM (AL-139, AnshLabs, USA) tests were performed according to the manufactures’ instruction manuals in a central laboratory (KingMed Diagnostics, Guangzhou, China). HbA1c was measured using a Bio-rad D-100 Haemoglobin Testing System (Bio-rad). Blood glucose was measured using a Roche Cobas c702 analyser (Roche Diagnostics). Insulin and C peptide were measured using a Roche […] analyser (Roche Diagnostics). GLP-1 and OXM were measured using a Tecan Infinite M Plex microplate reader (TECAN).
(§2) Standard non-compartmental pharmacokinetics methods were used to analyze IBI362 plasma concentration data using Pkanalix 2020R1 (Lixoft, Antony, France). Secondary efficacy outcomes included change from baseline to week 12 in HbA1c, fasting plasma glucose (FPG), fasting insulin levels, change from baseline to week 12 in post-mixed-meal tolerance test (post-MTT) glucose, insulin, C peptide, GLP-1 and OXM levels, as well as seven-point self-measured blood glucose (SMBG) profile.
IBI362 Innovent Biologics (Suzhou) Co., Ltd. CIBI362A101
3. Standard meal test (MTT) collection measures included: insulin, C-peptide, plasma glucose, glucagon, endogenous OXM, and endogenous GLP-1. The sampling points include: fasting, 30 min, 1h, 2h, 3h and 4h.
A total of 9 mL blood will be collected from each blood collection point. See the manual of the central laboratory for the detailed operation process. Fasting state refers to fasting for 10 hours. [ The standard meal is
instant noodles. The master Kang roast beef noodles (bucket noodles) purchased by the sponsor in a unified manner are removed from the oil bag. The noodles are soaked in boiled water and then removed. The seasoning
bag is added and mixed well. The time is counted from the first bite of eating. The noodles are eaten within 10 minutes, and 200 mL of water is drunk; or the instant noodles are directly opened with 200 mL of boiled
water to ensure that the noodles are eaten and the water or soup is drunk]. Visit days when MTT test is performed: 1 day prior to Cycle 1 administration, Day 80 (D80).
4. If the patient experiences drug-related adverse events during dose escalation and meets the protocol-specified tolerance criteria, dose adjustment is required at the investigator's discretion, and a standard meal test
should be performed 48 hours after the first dose after dose adjustment.
● Test by central laboratory

Test [2] deals with Chinese patients with T2D. Kind of test: Blood pressure (systolic, diastolic). Conditions: Dulaglutide group; mean. From the text: Primary outcomes of the study were the safety and tolerability of IBI362. Safety assessment included adverse events, physical examinations, laboratory tests (including lipase, amylase and calcitonin level measures), vital signs and 12-lead electrocardiogram. Adverse events were categorized according to the Medical Dictionary for Regulatory Activities system organ classes (SOCs) and preferred terms. Treatment-emergent adverse events (TEAEs) were monitored from the time of informed consent to the safety follow-up period. The severity of TEAEs (mild, moderate or severe) and the association between an event and the study drug were assessed by investigators based on pre-specified criteria.
Fig. S7: Change from baseline in waist circumference, BMI and blood pressure at week 12. a. CFB in waist circumference at week 12. b. CFB in BMI at week 12. c. CFB in blood pressure at week 12. Data are plotted as means +/- SD. a. IBI362 3.0 mg n = 7; IBI362 4.5 mg n = 5; IBI362 6.0 mg n = 8; Pooled placebo n = 11; Dulaglutide n = 6. b. IBI362 3.0 mg n = 7; IBI362 4.5 mg n = 5; […]
mg n = 6; IBI362 6.0 mg n = 8; Pooled placebo n = 11; Dulaglutide n = 6. BMI = body-mass index; CFB = change from baseline; DBP = diastolic blood pressure; SBP = systolic blood pressure; SD = standard deviation. Source data are provided as a Source Data file.
CFB in BMI at week 12 (kg/m2), […]
at week 12 (mm Hg), mean (SD)
CFB in waist circumference at week 12 (cm), mean (SD) […]

For test [3], the system named is Chinese patients with T2D. Kind of test: Glycated haemoglobin A1c (HbA1c). The note with it: 1.5 mg once weekly; for HbA1c at week 12, single patients: each line a single patient. On the procedure:
as §1, §2
The analyses for change from baseline in HbA1c, FPG, post-MTT glucose AUC0–4 h and body weight were performed using the mixed-effect model for repeated measures (MMRM) with least-squares means and standard error provided. The MMRM included the corresponding baseline value, treatment, visit and treatment-by-visit as fixed effects and patient as a random effect. Mean change or mean percent change from baseline were analysed using a restricted maximum likelihood (REML)‐based repeated measures approach in combination with the Newton Raphson Algorithm. The fix effect of visit was fitted as a repeated effect and an unstructured covariance matrix was used. In case of non-converge, matrix like Variance Components and Compound Symmetry will be tested in a subsequent order until model‐convergence is achieved. The Kenward-Roger degree of freedom was used in estimating fixed effects. No missing data imputation was conducted. For HbA1c, FPG and body weight, point estimate of treatment difference versus placebo and 90% CI were provided for each IBI362 dose group and the dulaglutide group, with nominal p values.

Take “Dulaglutide: open-label active reference, subcutaneously once weekly at a fixed dose of 1.5 mg [reference compound]”: the “C peptide during MTT, mean” value in test [1] (week 12, 0 min) is reported as 3.04 ng/mL; in test [1] (week 12, 30 min), 4.18 ng/mL; in test [1] (week 12, 60 min) it was 6.16 ng/mL; in test [1] (week 12, 120 min) it was 8.34 ng/mL; in test [1] (week 12, 180 min) it was 5.85 ng/mL; in test [1] (week 12, 240 min), 4.53 ng/mL. Further, the “Change from baseline to week 12 in blood pressure, diastolic” value in test [2] is recorded as 4.0 mm Hg. Further, the “Change from baseline to week 12 in blood pressure, systolic” value in test [2] turned out to be 5.8 mm Hg. Besides, the “Percent of patients with change from baseline to week 12 in HbA1c <1.0%” value in test [3] (n=6) is 16.7%. Besides, the “Percent of patients with change from baseline to week 12 in HbA1c ≥1.0% and <1.5%” value in test [3] (n=6) amounted to 50.0%. Moreover, the “Percent of patients with change from baseline to week 12 in HbA1c ≥1.5% and <2.0%” value in test [3] (n=6) worked out at 0.0%. Besides, the “Percent of patients with change from baseline to week 12 in HbA1c ≥2.0%” value in test [3] (n=6) was found to be 33.3%. The “HbA1c at week 12, single patients” value is 6.4% and 6.6% and 6.5% and 7.2% and 6.0% in test [3]; 5.5% in test [3] (listed as dulaglutide). Further, the “Change from baseline in HbA1c, LS mean” value in test [3] (week 4, n=6, MMRM) is -1.03%; in test [3] (week 8, n=6, MMRM), -1.72%. For the same substance, the “patients achieving ≥1.5% reductions in HbA1c from baseline” value in test [3] (week 12, n=6) is 33.3%. Besides, the “Change from baseline in HbA1c, LS mean (SE)” value in test [3] (week 12, n=6, MMRM) is -1.98%. Moreover, in test [3] (week 12, MMRM), the “HbA1c: ETD versus placebo, LS mean (90% CI)” value is listed as −1.11%.
